# Measured values as given in ChEMBL document CHEMBL5329205, “Development of novel quinoline-NO donor hybrids inducing human breast cancer cells apoptosis via inhibition of topoisomerase I” (Bioorg Med Chem, 2023).
# Active and inactive are the calls of the source. The calls are words filed in the database; no cut-off is given here.
# Tests used:
# [1] = system: MCF7; experiment: Induction of ROS generation in human MCF7 cells at 0.1 uM incubated for 24 hrs by DCFH-DA staining based fluorescent microscopic analysis; assay type: functional, cell-based
# [2] = Toxicity in BALB/c mouse xenografted with human MCF7 cells assessed as spleen damage at 10 mg/kg, ip administered once every two days for 3 weeks by H and E staining based microscopic analysis; assay type: organism-based; conditions: in vivo, 504 h
# [3] = system: MCF7; experiment: Induction of apoptosis in human MCF7 cells assessed as late apoptotic cells at 0.75 uM incubated for 48 hrs by Annexin-V/PI staining based flow cytometry analysis (reference value: 0.0%); assay type: functional
# [4] = Toxicity in BALB/c mouse xenografted with human MCF7 cells assessed as kidney damage at 5 mg/kg, ip administered once every two days for 3 weeks by H and E staining based microscopic analysis; assay type: organism-based; conditions: in vivo, 504 h
# [5] = system: MCF7; experiment: Induction of cell cycle arrest in human MCF7 cells assessed as S phase cells at 3 uM incubated for 24 hrs by PI/RNaseA staining based flow cytometry analysis (reference value: 22.2 %); assay type: functional
# [6] = system: MCF7; experiment: Induction of cell cycle arrest in human MCF7 cells assessed as G1 phase cells at 1.5 uM incubated for 24 hrs by PI/RNaseA staining based flow cytometry analysis (reference value: 66.08 %); assay type: functional
# [7] = system: MCF7; experiment: Induction of cell cycle arrest in human MCF7 cells assessed as G2 phase cells at 3 uM incubated for 24 hrs by PI/RNaseA staining based flow cytometry analysis (reference value: 7.67 %); assay type: functional
# [8] = Toxicity in BALB/c mouse xenografted with human MCF7 cells assessed as liver damage at 5 mg/kg, ip administered once every two days for 3 weeks by H and E staining based microscopic analysis; assay type: organism-based; conditions: in vivo, 504 h
# [9] = Toxicity in BALB/c nude mouse xenografted with human MCF7 cells assessed as heart damage at 5 mg/kg, ip administered once every two days for 3 weeks by H and E staining based microscopic analysis; assay type: organism-based; conditions: in vivo, 504 h
# [10] = system: MCF7; experiment: Induction of apoptosis in human MCF7 cells assessed as early apoptotic cells at 0.75 uM incubated for 48 hrs by Annexin-V/PI staining based flow cytometry analysis (reference value: 0.3%); assay type: functional
# [11] = system: MCF7; experiment: Induction of apoptosis in human MCF7 cells assessed as upregulation of cleaved-PARP expression incubated for 24 hrs by Western blot analysis; assay type: functional, cell-based; conditions: dose 1-4 µM
# [12] = Toxicity in BALB/c mouse xenografted with human MCF7 cells assessed as spleen damage at 5 mg/kg, ip administered once every two days for 3 weeks by H and E staining based microscopic analysis; assay type: organism-based; conditions: in vivo, 504 h
# [13] = system: MCF7; experiment: Antiproliferative activity against human MCF7 cells assessed as NO release at 4 uM preincubated with PTIO for 2 hrs followed by compound addition and measured after 24 hrs by total nitric oxide assay; assay type: functional, cell-based
# [14] = system: MCF7; experiment: Induction of cell cycle arrest in human MCF7 cells assessed as S phase cells at 0.75 uM incubated for 24 hrs by PI/RNaseA staining based flow cytometry analysis (reference value: 22.2 %); assay type: functional
# [15] = system: MCF7; experiment: Induction of apoptosis in human MCF7 cells assessed as late apoptotic cells at 3 uM incubated for 48 hrs by Annexin-V/PI FITC staining based flow cytometry analysis (reference value: 0.0%); assay type: functional
# [16] = target: T1, DNA topoisomerase 1 (Homo sapiens) (UniProt P11387); experiment: Inhibition of human DNA topoisomerase I mediated supercoiled DNA relaxation activity incubated for 30 mins by Ged Red staining based agarose gel electrophoresis analysis; conditions: dose 20-100 µM
# T1 sequence (whole entry): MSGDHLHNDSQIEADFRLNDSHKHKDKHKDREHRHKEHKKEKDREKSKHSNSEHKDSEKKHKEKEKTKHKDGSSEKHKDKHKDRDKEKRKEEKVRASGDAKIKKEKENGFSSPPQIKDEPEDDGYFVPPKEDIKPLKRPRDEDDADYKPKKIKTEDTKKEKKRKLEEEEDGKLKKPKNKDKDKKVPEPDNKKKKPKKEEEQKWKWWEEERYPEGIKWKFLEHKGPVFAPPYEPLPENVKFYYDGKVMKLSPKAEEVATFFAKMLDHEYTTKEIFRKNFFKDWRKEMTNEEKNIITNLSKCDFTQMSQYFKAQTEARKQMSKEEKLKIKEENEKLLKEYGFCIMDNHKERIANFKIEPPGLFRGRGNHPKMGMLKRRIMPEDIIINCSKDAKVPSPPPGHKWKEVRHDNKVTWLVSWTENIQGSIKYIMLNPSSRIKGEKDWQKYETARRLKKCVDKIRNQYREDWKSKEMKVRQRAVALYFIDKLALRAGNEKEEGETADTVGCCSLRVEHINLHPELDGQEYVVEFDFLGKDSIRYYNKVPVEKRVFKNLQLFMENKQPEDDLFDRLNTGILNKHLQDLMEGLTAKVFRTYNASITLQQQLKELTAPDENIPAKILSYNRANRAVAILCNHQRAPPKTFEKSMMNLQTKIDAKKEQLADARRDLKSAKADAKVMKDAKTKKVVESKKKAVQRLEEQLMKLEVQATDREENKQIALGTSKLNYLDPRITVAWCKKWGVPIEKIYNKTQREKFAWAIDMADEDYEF
# [17] = system: MCF7; experiment: Induction of apoptosis in human MCF7 cells assessed as early apoptotic cells at 1.5 uM incubated for 48 hrs by Annexin-V/PI staining based flow cytometry analysis (reference value: 0.3%); assay type: functional
# [18] = system: A549; experiment: Antiproliferative activity against human A549 cells assessed as inhibition of cell growth incubated for 48 hrs by MTT assay; assay type: functional, cell-based; conditions: A549, 48 h
# [19] = Toxicity in BALB/c mouse xenografted with human MCF7 cells assessed as lung damage at 5 mg/kg, ip administered once every two days for 3 weeks by H and E staining based microscopic analysis; assay type: organism-based; conditions: in vivo, 504 h
# [20] = system: MCF7; experiment: Induction of cell cycle arrest in human MCF7 cells assessed as G2 phase cells at 0.75 uM incubated for 24 hrs by PI/RNaseA staining based flow cytometry analysis (reference value: 7.67 %); assay type: functional
# [21] = system: MCF7; experiment: Induction of apoptosis in human MCF7 cells assessed as viable cells at 0.75 uM incubated for 48 hrs by Annexin-V/PI staining based flow cytometry analysis (reference value: 99.7%); assay type: functional; conditions: read-out: Activity
# [22] = system: MCF7; experiment: Induction of apoptosis in human MCF7 cells assessed as nucleus fragmentation upto 3 uM incubated for 48 hrs by Hoechst-33342 staining based fluorescent microscopic analysis; assay type: functional, cell-based
# [23] = system: MCF7; experiment: Induction of apoptosis in human MCF7 cells assessed as bright blue appearance of cells upto 3 uM incubated for 48 hrs by Hoechst-33342 staining based fluorescent microscopic analysis; assay type: functional, cell-based
# [24] = system: MCF7; experiment: Induction of cell cycle arrest in human MCF7 cells assessed as G2 phase cells at 1.5 uM incubated for 24 hrs by PI/RNaseA staining based flow cytometry analysis (reference value: 7.67 %); assay type: functional
# [25] = system: MCF7; experiment: Induction of cell cycle arrest in human MCF7 cells assessed as G1 phase cells at 0.75 uM incubated for 24 hrs by PI/RNaseA staining based flow cytometry analysis (reference value: 66.08 %); assay type: functional
# [26] = system: HCT-116; experiment: Antiproliferative activity against human HCT-116 cells assessed as inhibition of cell growth incubated for 48 hrs by MTT assay; assay type: functional, cell-based; conditions: HCT-116, 48 h
# [27] = system: NCI/ADR-RES; experiment: Antiproliferative activity against human MCF7ADR cells assessed as inhibition of cell growth measured after 48 hrs by MTT assay; assay type: functional, cell-based
structure (smiles),measurement,setting,value
COc1cc(-c2cc(C(=O)OCCCCCOc3no[n+]([O-])c3S(=O)(=O)c3ccccc3)c3ccccc3n2)cc(OC)c1OC,Activity,[1],Active
same,Activity,[2],Non-Toxic
same,Activity,[3],18%
same,Activity,[4],Non-Toxic
same,Activity,[5],17.82%
same,Activity,[6],61.5%
same,Activity,[7],23.52%
same,Activity,[8],Non-Toxic
same,Activity,[9],Non-Toxic
same,Activity,[10],11.9%
same,Activity,[11],Dose-Dependent Effect
same,Activity,[12],Non-Toxic
same,Activity,[13],inactive
same,Activity,[14],22.08%
same,Activity,[15],50%
same,inhibition,[16],Dose-Dependent Effect
same,Activity,[17],13.2%
same,IC50,[18],2130 nM
same,Activity,[19],Non-Toxic
same,Activity,[20],10.62%
same,viability at 0.75 µM,[21],67.1%
same,Activity,[22],Active
same,Activity,[23],Active
same,Activity,[24],19.12%
same,Activity,[25],65.47%
same,IC50,[26],2480 nM
same,IC50,[27],620 nM
